Publication PMC5011342, “A high throughput drug screening assay to identify compounds that promote oligodendrocyte differentiation using acutely dissociated and purified oligodendrocyte precursor cells” (BMC Research Notes, 2016)
Read-outs that look alike come from different tables or passages of the source.

How the values were obtained:
[1] = test system: acutely dissociated and purified rat OPCs; assay: Acute OL differentiation assay (MBP expression/cell, immunofluorescent image quantification); assay type: cell-based; details: sheet "All OLga data"; for activation at 2 µM / activation at 10 µM / activation at 0.08 µM / activation at 0.4 µM: Rattus norvegicus
How it was run: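 Oligodendrocyte precursor cells were enriched from P6-P7 Sprague–Dawley rat brains by immunopanning (RAN-2 and GalC depletion, O4 selection), plated at 5000 cells/well in serum-free, mitogen-free differentiation media on PDL/laminin 96-well view plates, centrifuged at 200×g, and pre-incubated 1–2 h before test compounds were added in quadruplicate. On DIV4, cells were fixed, stained for MBP and DAPI, imaged automatically, and MBP expression per cell was quantified.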

expanded OPCs = assay: cells; details: for viability at 0.1 µM / viability at 1 µM / viability at 10 µM: Rattus norvegicus, 72 h
How it was run: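 Expanded OPCs seeded at 10,000 cells/well in differentiation media, then exposed to NCC library compounds at 10, 1 and 0.1 µM (quadruplicate, 0.1% DMSO) for three days. Viability read as alamarBlue fluorescence (560/590 nm) after 4 h at 37 °C; tunicamycin 5 ng/ml served as toxicity control.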

[2] = test compound at 2 uM, NCC library screen, relative to quetiapine, read-out: 2 uM (% Quet)
[3] = test compound at 10 uM, NCC library screen, relative to quetiapine, read-out: 10 uM (% Quet)
[4] = alamarBlue viability of expanded OPCs, compound at 0.1 µM, relative to DMSO control
[5] = alamarBlue viability of expanded OPCs, compound at 1 µM, relative to DMSO control
[6] = alamarBlue viability of expanded OPCs, compound at 10 µM, relative to DMSO control
[7] = 2 uM test compound, relative to quetiapine, read-out: OL differentiation, 2 uM (% Quet)
[8] = 10 uM test compound, relative to quetiapine, read-out: OL differentiation, 10 uM (% Quet)
[9] = read-out: 0.1 µM (% DMSO), alamarBlue viability of expanded OPCs, compound at 0.1 µM, sheet All Tox data
[10] = read-out: 1 µM (% DMSO), alamarBlue viability of expanded OPCs, compound at 1 µM, sheet All Tox data
[11] = read-out: 10 µM (% DMSO), alamarBlue viability of expanded OPCs, compound at 10 µM, sheet All Tox data
[12] = 0.08 uM test compound, relative to quetiapine, read-out: OL differentiation, 0.08 uM (% Quet)
[13] = 0.4 uM test compound, relative to quetiapine, read-out: OL differentiation, 0.4 uM (% Quet)
[14] = read-out: 0.1 µM (% DMSO), alamarBlue viability, NCC library compound at 0.1 µM, sheet "All Tox data"
[15] = read-out: 1 µM (% DMSO), alamarBlue viability, NCC library compound at 1 µM, sheet "All Tox data"
[16] = read-out: 10 µM (% DMSO), alamarBlue viability, NCC library compound at 10 µM, sheet "All Tox data"

Structure (SMILES)	activation at 2 µM [1, 2]	activation at 10 µM [1, 3]	activation at 2 µM [1, 7]	activation at 10 µM [1, 8]	viability at 0.1 µM (expanded OPCs; [9])	viability at 1 µM (expanded OPCs; [10])	viability at 10 µM (expanded OPCs; [11])	viability at 0.1 µM (expanded OPCs; [14])	viability at 1 µM (expanded OPCs; [15])	viability at 10 µM (expanded OPCs; [16])	also measured
COc1cc(Cc2cnc(N)nc2N)cc(OC)c1OC [Trimethoprim]	-30.5%	-40.8%									0.1 µM (% DMSO) (expanded OPCs; [4]): 93.8 % DMSO; 1 µM (% DMSO) (expanded OPCs; [5]): 89.7 % DMSO; 10 µM (% DMSO) (expanded OPCs; [6]): 86.5 % DMSO
CN(C)CCN(Cc1ccccc1)c1ccccn1 [Tripelennamine]			8.2%	31.1%	82.9%	86.1%	80.7%				
CC(C)[C@]12O[C@H]1[C@@H]1O[C@]13[C@]1(O[C@H]1C[C@H]1C4=C(CC[C@@]13C)C(=O)OC4)[C@@H]2O [Triptolide]					73.9%	13.2%	13.7%				activation at 0.08 µM [1, 12]: 3.9%; activation at 0.4 µM [1, 13]: -23.3%
CN1[C@@H]2CC[C@H]1C[C@@H](OC(=O)c1c[nH]c3ccccc13)C2 [Tropisetron]			37.9%	16.9%	98.4%	90.9%	82.5%				
COc1cc(C(=O)NC2CCCNC2)cc(OC)c1OC (stereo not shown) [Troxipide]			18%	-6.8%	102%	115%	109%				
c1ccc2c3c([nH]c2c1)CNCC3 [Tryptoline]	-12.9%	-20.7%						103%	92.4%	62.6%	
c1ccc2c(c1)CCCC2C1=NCCN1 (stereo not shown) [Tyzine]	-6%	0.3%									0.1 µM (% DMSO) (expanded OPCs; [4]): 181.2 % DMSO; 1 µM (% DMSO) (expanded OPCs; [5]): 186.3 % DMSO; 10 µM (% DMSO) (expanded OPCs; [6]): 187.5 % DMSO
CC(C)C[C@H](NC(=O)[C@@H](O)[C@H](N)Cc1ccccc1)C(=O)O [Ubenimex]	-3.1%	9.5%						112%	112%	123%	
COc1ccccc1N1CCN(CCCNc2cc(=O)n(C)c(=O)n2C)CC1 [Urapidil]			24.2%	8.4%	84.5%	89.8%	96.2%				
CC(C)[C@H](N)C(=O)OCCOCn1cnc2c(=O)[nH]c(N)nc21 [Valaciclovir]			-1.4%	-8.7%	91.4%	98%	102%				
Cc1onc(-c2ccccc2)c1-c1ccc(S(N)(=O)=O)cc1 [Valdecoxib]			8.7%	-33.1%	109%	104%	105%				
CCCC(CCC)C(=O)O [Valproic Acid]	-5.2%	-29.7%						97.5%	93.1%	104%	
CCCCC(=O)N(Cc1ccc(-c2ccccc2-c2nnn[nH]2)cc1)[C@H](C(=O)O)C(C)C [Valsartan]			10.7%	-1%				86.6%	84%	82.9%	
CC(=O)O[C@H]1C[C@@H]2CC[C@@H]3[C@H](CC[C@@]4(C)[C@H]3C[C@H]([N+]3(C)CCCCC3)[C@@H]4OC(C)=O)[C@@]2(C)C[C@@H]1N1CCCCC1 [Vecuronium Bromide]	13.2%	17.7%						86.3%	87.7%	78.4%	
COc1ccc(C(CN(C)C)C2(O)CCCCC2)cc1 (stereo not shown) [Venlafaxine]			4%	-26%	89.1%	85.2%	76.7%				
Nc1ncnc2c1ncn2[C@@H]1O[C@H](CO)[C@@H](O)[C@@H]1O [Vidarabine]	-12.9%							90.6%	84.9%	48.9%	activation at 0.4 µM ([1]; test compound at 0.4 uM, NCC library screen, relative to quetiapine, read-out: 0.4 uM (% Quet)): -2.3%
CC[C@]1(O)C[C@@H]2CN(CCc3c([nH]c4ccccc34)[C@@](C(=O)OC)(c3cc4c(cc3OC)N(C)[C@H]3[C@@](O)(C(N)=O)[C@H](O)[C@]5(CC)C=CCN6CC[C@]43[C@@H]65)C2)C1 [Vindesine]									11.4%	9.2%	activation at 0.08 µM ([1]; test compound at 0.08 uM, NCC library screen, relative to quetiapine, read-out: 0.08 uM (% Quet)): -193%
CCC1=C[C@@H]2CN(C1)Cc1c([nH]c3ccccc13)[C@@](C(=O)OC)(c1cc3c(cc1OC)N(C)[C@H]1[C@@](O)(C(=O)OC)[C@H](OC(C)=O)[C@]4(CC)C=CCN5CC[C@]31[C@@H]54)C2 [Vinorelbine]								56.8%	34.4%	11.1%	activation at 0.08 µM [1, 12]: -20.7%; activation at 0.4 µM [1, 13]: -107%
Cl.Cl.O=C(O)COCCN1CCN(C(c2ccccc2)c2ccc(Cl)cc2)CC1 (stereo not shown) [Virlix]											2 uM (% Quet) ([1]; test compound at 2 uM, MBP expression relative to quetiapine, NCC library screen): 3.4 % Quet; 10 uM (% Quet) ([1]; test compound at 10 uM, MBP expression relative to quetiapine, NCC library screen): -0.36 % Quet; 0.1 µM (% DMSO) (expanded OPCs): 98.3 % DMSO; 1 µM (% DMSO) (expanded OPCs): 92.7 % DMSO; 10 µM (% DMSO) (expanded OPCs): 81.0 % DMSO
C[C@@H](c1ncncc1F)[C@](O)(Cn1cncn1)c1ccc(F)cc1F [Voriconazole]			4.8%	10%	99.1%	97.4%	96%				
CC(=O)CC(c1ccccc1)c1c(O)c2ccccc2oc1=O (stereo not shown) [Warfarin]	-4.3%	-2%									0.1 µM (% DMSO) (expanded OPCs; [4]): 92.9 % DMSO; 1 µM (% DMSO) (expanded OPCs; [5]): 93.8 % DMSO; 10 µM (% DMSO) (expanded OPCs; [6]): 96.2 % DMSO
COc1cc(N)c(Cl)cc1C(=O)NC1CN2CCC1CC2 (stereo not shown) [Zacopride]			6.8%	13%	87%	88.6%	91.9%				
COc1cc(C(=O)NS(=O)(=O)c2ccccc2C)ccc1Cc1cn(C)c2ccc(NC(=O)OC3CCCC3)cc12 [Zafirlukast]			-96.7%					94.9%	78.7%	41.9%	activation at 0.4 µM [1, 13]: -24.7%
Nc1ccn([C@H]2CC[C@@H](CO)O2)c(=O)n1 [Zalcitabine]			-5.5%	-96.7%				95.4%	86.4%	79.3%	
CCN(C(C)=O)c1cccc(-c2ccnc3c(C#N)cnn23)c1 [Zaleplon]	12.3%	-15.8%						87.8%	86.8%	86.1%	
COc1cc(-c2ccc(=O)[nH]n2)ccc1OC(F)F [Zardaverine]			4.1%	-36.7%	86.5%	93.5%	67.4%				
C[C@H]1CCC[C@H](O)CCCCCc2cc(O)cc(O)c2C(=O)O1 [Zeranol]			-37.2%	-51.9%	83.6%	85.8%	69.3%				
Cc1cn([C@H]2C[C@H](N=[N+]=[N-])[C@@H](CO)O2)c(=O)[nH]c1=O [Zidovudine]											activation at 2 µM ([1]; test compound at 2 uM, MBP expression relative to quetiapine, NCC library screen, read-out: 2 uM (% Quet)): -29.4%; activation at 10 µM ([1]; test compound at 10 uM, MBP expression relative to quetiapine, NCC library screen, read-out: 10 uM (% Quet)): -41.2%; 0.1 µM (% DMSO) (expanded OPCs; [4]): 89.6 % DMSO; 1 µM (% DMSO) (expanded OPCs; [5]): 85.7 % DMSO; 10 µM (% DMSO) (expanded OPCs; [6]): 83.9 % DMSO
CC(c1cc2ccccc2s1)N(O)C(N)=O (stereo not shown) [Zileuton]			-2.6%	-52.1%	104%	89.4%	77.4%				
CN(C)CCc1c[nH]c2ccc(C[C@H]3COC(=O)N3)cc12 [Zolmitriptan]	4.1%	4.7%						85.9%	89.9%	95.5%	
